In patent US10130637B2, “Inhibition of histone methyltransferase for cardiac reprogramming” (Duke University, priority 2012, dated 2018):
Where a name gives a salt, the structure may show the parent alone.

Assays:
[1] = tested on: Neonatal cardiac fibroblasts; test: cardiac marker gene expression by qPCR in neonatal cardiac fibroblasts treated with HMT inhibitors, no microRNA; format: cell-based, mouse; details: 1 μM, after 3 days, absence of microRNA combination (FIG. 9A)
Description: Neonatal cardiac fibroblasts were treated with 1 μM of the H3K9me3 inhibitor BIX-01294 (BIX) or 1 μM of the H3K27me3/H4K20me3 inhibitor 3-Deazaneplanocin A hydrochloride (DZNep) from day 1 to day 3 in the absence (A) or presence of microRNA combination (MC) (B). Gene expression of cardiac markers was assessed by qPCR. Data are shown as Avg+Sdv. *P<0.05.
Inhibition of histone methyltransferase activity by small molecule compounds was investigated. Neonatal cardiac fibroblasts were treated with 1 μM of the H3K9 methylation inhibitor BIX-01294 or 1 μM of the H3K27/H4K20 methylation inhibitor 3-Deazaneplanocin A hydrochloride (DZNep). After 3 days, RNA was harvested using standard protocols known in the art, and cardiac gene expression was assessed by qPCR. The cardiac genes tested were Tbx5, Mef2C, Gata4, and Nkx2.5. […] Alternatively, inhibition of H3K9 causes upregulation of other cardiac markers, such asTbx5, and therefore inhibition of H3K9 methylation also promotes the expression of at least one cardiac marker.

[2] = tested on: lysine 9 of histone H3 (H3K9); details: has been shown; cited from earlier work
G9a-like protein = biological target: T1, G9a-like protein (Homo sapiens, UniProt Q9H9B1); details: reported activity; cited from earlier work
T1 sequence (Q9H9B1 1-1298): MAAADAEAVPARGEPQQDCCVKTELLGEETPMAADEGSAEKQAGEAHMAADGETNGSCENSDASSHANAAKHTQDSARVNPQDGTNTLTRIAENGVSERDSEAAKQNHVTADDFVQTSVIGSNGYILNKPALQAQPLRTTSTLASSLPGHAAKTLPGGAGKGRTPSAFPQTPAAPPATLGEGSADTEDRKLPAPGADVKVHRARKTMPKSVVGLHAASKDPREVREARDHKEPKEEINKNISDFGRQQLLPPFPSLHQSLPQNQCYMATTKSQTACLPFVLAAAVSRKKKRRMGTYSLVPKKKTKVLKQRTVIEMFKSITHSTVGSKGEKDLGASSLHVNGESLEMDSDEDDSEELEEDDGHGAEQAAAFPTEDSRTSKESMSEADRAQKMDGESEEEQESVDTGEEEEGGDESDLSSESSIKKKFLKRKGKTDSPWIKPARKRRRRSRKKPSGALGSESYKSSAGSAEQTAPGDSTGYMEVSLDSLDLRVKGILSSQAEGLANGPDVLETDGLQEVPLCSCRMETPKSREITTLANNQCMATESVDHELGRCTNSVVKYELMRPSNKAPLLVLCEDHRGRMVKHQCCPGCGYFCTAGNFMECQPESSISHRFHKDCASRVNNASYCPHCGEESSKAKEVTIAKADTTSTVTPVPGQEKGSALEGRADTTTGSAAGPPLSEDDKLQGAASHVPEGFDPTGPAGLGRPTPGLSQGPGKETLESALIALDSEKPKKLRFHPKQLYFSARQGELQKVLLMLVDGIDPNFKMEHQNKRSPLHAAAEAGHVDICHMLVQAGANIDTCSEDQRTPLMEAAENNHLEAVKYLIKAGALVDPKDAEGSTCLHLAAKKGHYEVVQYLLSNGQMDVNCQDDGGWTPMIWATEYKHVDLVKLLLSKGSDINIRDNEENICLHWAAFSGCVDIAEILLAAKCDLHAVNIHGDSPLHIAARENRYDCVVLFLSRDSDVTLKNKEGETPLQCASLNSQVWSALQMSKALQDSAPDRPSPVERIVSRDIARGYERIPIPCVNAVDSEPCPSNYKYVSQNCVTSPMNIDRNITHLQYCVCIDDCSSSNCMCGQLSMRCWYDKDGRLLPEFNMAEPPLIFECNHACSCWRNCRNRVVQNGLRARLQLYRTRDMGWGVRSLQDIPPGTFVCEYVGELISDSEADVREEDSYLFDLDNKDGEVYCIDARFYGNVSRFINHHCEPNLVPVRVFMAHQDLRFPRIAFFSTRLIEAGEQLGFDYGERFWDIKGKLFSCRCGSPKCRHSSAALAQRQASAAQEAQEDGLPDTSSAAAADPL

[3] = biological target: T2, G9a histone lysine methyltransferase (Homo sapiens, UniProt Q96KQ7); details: reported activity; cited from earlier work
T2 sequence (Q96KQ7 1-1210): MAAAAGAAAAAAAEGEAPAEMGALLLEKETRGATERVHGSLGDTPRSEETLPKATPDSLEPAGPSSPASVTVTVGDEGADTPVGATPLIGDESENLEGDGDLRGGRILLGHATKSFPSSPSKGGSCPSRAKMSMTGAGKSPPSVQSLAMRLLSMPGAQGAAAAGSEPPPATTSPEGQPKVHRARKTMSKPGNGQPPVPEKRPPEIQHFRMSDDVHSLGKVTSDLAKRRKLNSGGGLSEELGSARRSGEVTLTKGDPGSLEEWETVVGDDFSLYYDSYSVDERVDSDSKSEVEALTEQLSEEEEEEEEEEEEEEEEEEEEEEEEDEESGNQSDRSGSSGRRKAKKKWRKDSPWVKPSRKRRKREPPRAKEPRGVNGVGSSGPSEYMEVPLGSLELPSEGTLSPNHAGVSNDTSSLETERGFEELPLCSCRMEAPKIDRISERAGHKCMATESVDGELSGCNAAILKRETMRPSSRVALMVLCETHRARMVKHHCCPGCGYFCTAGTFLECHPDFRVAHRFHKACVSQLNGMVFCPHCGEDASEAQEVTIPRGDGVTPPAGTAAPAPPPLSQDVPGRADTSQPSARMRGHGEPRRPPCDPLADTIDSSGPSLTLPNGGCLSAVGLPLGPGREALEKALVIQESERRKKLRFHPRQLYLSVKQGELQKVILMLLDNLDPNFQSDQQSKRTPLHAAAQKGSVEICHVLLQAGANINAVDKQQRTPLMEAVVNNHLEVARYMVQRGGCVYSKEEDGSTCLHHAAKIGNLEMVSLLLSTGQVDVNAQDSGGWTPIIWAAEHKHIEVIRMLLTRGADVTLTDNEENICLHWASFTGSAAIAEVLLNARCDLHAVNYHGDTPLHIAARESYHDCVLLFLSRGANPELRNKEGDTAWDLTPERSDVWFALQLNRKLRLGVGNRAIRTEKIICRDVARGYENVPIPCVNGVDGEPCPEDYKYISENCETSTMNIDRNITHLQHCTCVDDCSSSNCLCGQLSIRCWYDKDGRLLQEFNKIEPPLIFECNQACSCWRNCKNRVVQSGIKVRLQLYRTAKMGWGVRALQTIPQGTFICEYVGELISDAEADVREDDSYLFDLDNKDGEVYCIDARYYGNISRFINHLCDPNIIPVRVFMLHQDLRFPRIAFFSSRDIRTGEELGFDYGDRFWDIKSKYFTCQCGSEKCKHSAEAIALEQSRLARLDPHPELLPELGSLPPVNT

[4] = tested on: Human fibroblasts (BJ cells); test: cardiac marker gene expression by qPCR in miRNA-transfected human fibroblasts with JAK inhibitor; format: cell-based; details: 1 μM, compared to cells transfected with the miRNAs alone
Description: Gene expression was determined by qPCR. (A) Isl-1 gene expression. (B) […] gene expression. (C) Tbx5 gene expression. (D) Mef2c gene expression. (E) Gata-4 gene expression.
RNA was harvested and prepared according to standard protocols for qPCR gene expression analysis. The expression of cardiac marker genes, such as Isl1, Mesp1, Tbx5, Mef2c, Gata4, and Hand2 was assessed.

SMILES | Mef2C cardiac marker gene expression [1] | Nkx2.5 cardiac marker gene expression [1] | Tbx5 cardiac marker gene expression [1] | methylation at lysine 9 of histone H3 (H3K9) [2] | activity on G9a-like protein (G9a-like protein) | activity on G9a histone lysine methyltransferase [3] | expression of cardiac markers (Isl1, Mesp1, Tbx5, Mef2c, Gata4, Hand2) [4]
COc1cc2nc(N3CCCN(C)CC3)nc(NC3CCN(Cc4ccccc4)CC3)c2cc1OC [BIX-01294, 2-(Hexahydro-4-methyl-1H-1,4-diazepin-1-yl)-6,7-dimethoxy-N-[1-(phenylmethyl)-4-piperidinyl]-4-quinazolinamine trihydrochloride] | significant downregulation | significant downregulation | upregulation | inhibit | inhibition | inhibition | 
CC(C)(C)c1nc2c3ccc(F)cc3c3c(=O)[nH]ccc3c2[nH]1 [JAK inhibitor I, 2-(1,1-Dimethylethyl)-9-fluoro-3,6-dihydro-7H-benz[h]-imidaz[4,5-f]isoquinolin-7-one] |  |  |  |  |  |  | increases
